Assay results published in article PMC8767159, “Multiparameter Optimization of Trypanocidal Cruzain Inhibitors With In Vivo Activity and Favorable Pharmacokinetics” (Frontiers in Pharmacology, 2022).

Legend:
[1] = Fraction unbound by equilibrium dialysis; type: in vitro ADME; conditions: Table S5; fraction unbound
Protocol: The fraction unbound (fu) ([Masimirembwa et al., 2003]) of the test compounds was determined after incubation with different media, namely, plasma, microsomes, and buffer with 10% FCS. Equilibrium dialysis was performed in a 96-well plate (HT-Dialysis, Gales Ferry, CT) in which each well was divided by a semipermeable membrane (12–14 kDa cutoff). The test compounds diluted in either plasma, microsome suspension, or buffer were added to one side of the membrane. Potassium phosphate buffer (50 mM, pH 7.4) was added to the other side of the membrane. A standard curve was used to calculate the compound concentration (fu) on each side of the membrane. Stock solutions of each compound were prepared in 100% DMSO to obtain a final concentration of 1 mM. The following compound concentrations were used: 1, 2, 20, 200, 2,000 and 5,000 nM. To 500 μl of medium, 0.5 μl of the compound stock solution was added, and this was applied to one side of the well. Each compound was evaluated in triplicate. Next, the plate was assembled, sealed, and incubated at 37°C under rotation (150 rpm) for 4 h. After the incubation period, the plates were subjected to LC-MS/MS.

[2] = In vitro metabolic stability in mouse liver microsomes; type: in vitro ADME; conditions: for CLint (L/h/kg) Mouse: Table S5; for CLint_u (L/h/kg) Mouse: Table S5, CLint/fu
Protocol: (§1) Isolated mouse (BD Gentest, Bedford, MA) and human liver microsomes (XenoTech, Kansas City, KS) ([Plant, 2004]) were added at a final concentration of 0.25 mg/ml to a solution containing 40 mM dibasic potassium phosphate and 10 mM monobasic potassium phosphate. Stock solutions of compounds at 5 mM were prepared in 100% DMSO. A 50:50 quenching solution of acetonitrile (ACN) and methanol (MeOH) was prepared. An NADPH solution was prepared at 10 mM. The preparations containing the microsomes were added to each well of the incubation plate (450 µl), which was then heated to 37°C for 10 min. The compounds were added to the respective wells of the test plate (2 µl). Then, 300 µl of the microsome preparation was added to each well of the test plate. The test plate was heated under gentle rotation for 5 min at 37°C. Next, 90 µl of the mixture contained in the test plate was added to the incubation plate, making a final volume of 540 µl. Samples were collected at the following incubation times: 0, 5, 10, 15, 20, and 30 min. To the 0 min sample plate, quenching solution (180 µl), NADPH (6 µl), and the incubation plate mixture (54 µl) were added to each well. The sample plate was then sealed, homogenized, and stored at 4°C. Then, 54 µl of the NADPH solution was added to the incubation plate, which was homogenized. Before the collection of each sample at the established times, 45 µl of the quenching solution was added to each well of the corresponding sample plates. After reaching the incubation times, 60 µl of the mixture contained in the incubation plate was added to the corresponding sample plates. The sample plates were then sealed and stored at 4°C. After the collection of the last sample (30 min), all sample plates were centrifuged at 3,800 rpm for 30 min. The supernatant from each well was collected and transferred to clean plates for mass spectrometry. Five to 10 µl of each sample was injected into an AB Sciex Triple Quad 5500 LC-MS/MS instrument.
(§2) For the biotransformation experiments and analysis of metabolites in microsomes, an Ultra-High-Pressure Liquid Chromatography instrument (UHPLC, Thermo Accela, Waltham, MA) ([Spaggiari et al., 2014]) connected to an automatic sample injector and a 1250 series pump was used. The UHPLC system was connected to a Thermo Fisher (Waltham, MA) LTQ Orbitrap mass spectrometer. For all other analyses, an AB Sciex Triple Quad 5500 coupled to a UHPLC equipped with a UV 1290 diode detector (Agilent Technologies, Santa Clara, CA) and a CTC PAL self-collecting system (LEAP Technologies, Carrboro, NC) was used. Q1 MS positive ion mode (300–500 Da) was used to detect the ions of the parent compounds. The UV detector was operated in spectral mode (250–280 nm). A Hypersil Gold C18 (2.1 mm × 100 mm, 1.9 µm, Thermo Fisher) HPLC column was used. The mobile phases were solvent A (0.1% formic acid in water) and solvent B (0.1% formic acid in ACN). The flow was adjusted to 0.55 ml/min, and the injection volume was adjusted to […]. The gradient started with 1% solvent B for 0.4 min, reached 40% (solvent B) in 2.3 min and 95% (solvent B) in 0.67 min, was maintained for 0.5 min, and returned to the initial condition of 1%. This condition was maintained for 1 min before injection of the next sample. The peak area ratio (peak area of the test compounds/peak area of the control compounds) was converted to the percentage of remaining compound, with the 0 min time point ratio set to 100%. T½ and CLint were calculated from the percentage of remaining compound versus the incubation time. From the resulting function, the slope (k) was determined. The equations T1/2 (min) = ln(2)/k and CLint in vitro (μL/min/mg) = k*1000/0.25 were used to determine T½ and CLint.

[3] = In vitro metabolic stability in human liver microsomes; type: in vitro ADME; conditions: for CLint (L/h/kg) Human: Table S5; for CLint_u (L/h/kg) Human: Table S5, CLint/fu
Protocol: as §1, §2

cruzain = biological target: T1, cruzain (Trypanosoma cruzi, UniProt P25779); assay: Cruzain enzyme inhibition assay (cleavage of fluorogenic substrate Z-FR-AMC); type: biochemical; conditions: for inhibition at 100 µM: compound 100 µM, mean of three measures
T1 construct: made in house; host or cells: Escherichia coli (strain M15)
T1 sequence (P25779 123-337 limits assumed): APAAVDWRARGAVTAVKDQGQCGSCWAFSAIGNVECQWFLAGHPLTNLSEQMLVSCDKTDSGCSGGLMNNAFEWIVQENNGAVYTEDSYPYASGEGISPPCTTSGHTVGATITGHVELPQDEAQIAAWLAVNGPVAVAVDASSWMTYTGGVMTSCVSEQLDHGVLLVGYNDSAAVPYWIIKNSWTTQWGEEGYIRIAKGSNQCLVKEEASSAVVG
Protocol: Pro-cruzain truncated at the C-terminus was expressed and purified using a previously described protocol ([Ferreira et al., 2019]). Escherichia coli (strain M15) cultures were grown overnight at 37°C and 200 rpm in Luria Bertani (LB) medium supplemented with ampicillin (100 μg/ml) and kanamycin (50 μg/ml). Next, the cultures were diluted 10-fold in fresh LB medium supplemented with 0.5 M NaCl, 0.2% glucose, 1 mM betaine, 0.5 M sorbitol, 100 μg/ml ampicillin, and 50 μg/ml kanamycin and incubated at 37°C and 200 rpm. At an optical density (OD600) of 0.9, the cultures were incubated at 47°C for 20 min to promote the expression of chaperones. Then, the expression of cruzain was induced by adding isopropyl β-D-thiogalactopyranoside (IPTG) to a final concentration of 0.2 mM, which was followed by overnight incubation of the cultures at 20°C and 200 rpm. Next, the cultures were centrifuged (5,000 rpm, 30 min, 4°C), and the cells were suspended in 50 ml of lysis buffer (300 mM NaCl, 50 mM Tris-HCl, and 1.6 mg/ml lysozyme, pH 8.0) per liter of culture and lysed by sonication (12 cycles of 30 s). This cell lysate was centrifuged (9,000 rpm, 30 min, 4°C), and the supernatant was collected. Cruzain was precipitated by incubation with 35% ammonium sulfate (2 h), and this suspension was centrifuged at 9,000 rpm for 30 min at 4°C. The precipitated cruzain was resuspended in lysis buffer, and the sample was dialyzed to eliminate ammonium sulfate. The soluble fraction of the dialysate was loaded on a Ni−NTA column (Qiagen, Hilden, Germany), and the contaminants were washed using washing buffer (300 mM NaCl, 50 mM Tris-HCl, and 10 mM imidazole, pH 8.0). Cruzain was eluted by applying an increasing imidazole gradient: 25, 50, 75, 100, and 250 mM. The fractions containing cruzain were pooled together and dialyzed against 1.5 L of 0.1 M acetate buffer, pH 5.5, and then concentrated to 0.5 mg/ml. Pro-cruzain was activated by incubation with activation buffer (100 mM sodium acetate, pH 5.5, 10 mM EDTA, 5 mM DTT, and 1 M NaCl) at 37°C. […] After activation, the enzyme was diluted 20-fold in binding buffer (20 mM sodium phosphate and 150 mM NaCl, pH 7.2) and added to thiopropyl Sepharose 6B resin (GE Healthcare Life Sciences, Pittsburgh, PA). After overnight incubation at 4°C, the resin was loaded on a column, and cruzain was eluted with binding buffer supplemented with 20 mM DTT. Fractions containing cruzain were pooled together and stored in 0.1 M sodium acetate, pH 5.5, at −80°C.
Cruzain activity was followed by monitoring the cleavage of the fluorogenic substrate Z-Phe-Arg-aminomethyl coumarin (Z-FR-AMC), as previously described ([Ferreira et al., 2019]), using 96-well flat-bottom black plates and wavelengths of 355 nm for excitation and 460 nm for emission. All cruzain assays were performed in 0.1 M sodium acetate buffer with 5 mM dithiothreitol (DTT) and 0.01% Triton X-100, pH 5.5. […] The cleavage of the substrate was monitored for 5 min, and the activity was calculated based on the initial reaction rates compared with the rate of a DMSO control at 30°C. The IC50 values were independently calculated by considering the rate measurements for at least six inhibitor concentrations, each evaluated in triplicate. To determine the mechanism of cruzain inhibition, eight concentrations of the substrate Z-FR-AMC and four concentrations of the inhibitor were employed, each in triplicate. Kinetic parameters were determined using the SigmaPlot (Systat Software Inc., Erkrath, Germany) enzyme kinetics module. Compounds were tested in two or three independent experiments. All enzyme assays were performed using varying Triton X-100 concentrations (0, 0.01, and 0.1%) ([Ferreira et al., 2009]). Compound concentrations were 100 μM in the single-dose percentage inhibition assays.

Structure (SMILES)	fu [1]	CLint (L/h/kg) Mouse [2] [L/h/kg]	CLint_u (L/h/kg) Mouse [2]	CLint (L/h/kg) Human [3] [L/h/kg]	CLint_u (L/h/kg) Human [3]	inhibition at 100 µM (cruzain) [%]	IC50 (cruzain; 1.5 nM cruzain, 5.0 µM Z-FR-AMC, mean ± SD of 2–3 assays, read-out: IC50 (µM) against cruzain) [µM]
CC(=O)Nc1ccccc1OCC(=O)NCCc1nc2ccccc2[nH]1 [Compound 43]	1.00	10.30	10.30 L/h/kg	3.94	3.94 L/h/kg	–	–
Cc1cc(C)c(C#N)c(SCC(=O)NCCc2nc3ccccc3[nH]2)n1 [Compound 59]	0.96	433.00	453.17 L/h/kg	61.50	64.36 L/h/kg	–	–
O=C(COc1ccccc1F)NCCc1nc2ccccc2[nH]1 [Compound 39]	0.94	125.00	132.56 L/h/kg	7.03	7.45 L/h/kg	–	–
COc1cc(OCC(=O)NCCc2nc3ccccc3[nH]2)ccc1[N+](=O)[O-] [Compound 16]	–	–	–	–	–	62	–
CC(=O)NCCc1nc2ccccc2n1CCOCc1ccccc1 [Compound 56]	0.97	95.10	98.14 L/h/kg	4.75	4.90 L/h/kg	–	–
O=C(CSc1ccccc1)NCCc1nc2ccccc2[nH]1 [Compound 48]	0.80	234.00	293.60 L/h/kg	9.07	11.38 L/h/kg	–	–
CC(=O)NCCc1nc2ccccc2n1CCOc1ccccc1 [Compound 55]	0.91	35.90	39.06 L/h/kg	1.78	1.94 L/h/kg	–	–
Cc1ccc2[nH]c(CCNC(=O)COc3ccc4ccccc4c3Br)nc2c1 [Compound 54]	0.05	528.00	–	65.00	1,334.7 L/h/kg	–	–
O=C(COc1ccccc1I)NCCc1nc2ccccc2[nH]1 [Compound 41]	0.63	683.00	1,082.41 L/h/kg	39.40	62.44 L/h/kg	–	–
O=C(COc1ccc2ccccc2c1)NCCc1nc2ccccc2o1 [Compound 51]	0.54	618.00	1,144.44 L/h/kg	35.40	65.56 L/h/kg	–	–
CC(=O)NCCc1nc2ccccc2n1CCOc1ccccc1Br [Compound 57]	0.94	306.00	325.19 L/h/kg	9.38	9.97 L/h/kg	–	–
O=C(CCOc1ccccc1)NCCc1c[nH]c2ccccc12 [Compound 58]	0.84	536.00	641.15 L/h/kg	14.20	16.99 L/h/kg	–	–
O=C(COc1ccc2ccccc2c1O)NCCc1nc2ccccc2[nH]1 [Compound 47]	0.72	655.00	939.71 L/h/kg	–	35.00 L/h/kg	–	–
O=C(CCOc1ccccc1)NCCc1nc2ccccc2[nH]1 [Compound 49]	1.00	86.20	86.20 L/h/kg	3.28	3.28 L/h/kg	–	–
Cc1ccccc1OCC(=O)NCCc1c[nH]c2ccccc12 [Compound 50]	0.61	790.00	1,292.96 L/h/kg	23.60	38.63 L/h/kg	–	–
COC(=O)c1cccc2cc(OCC(=O)NCCc3nc4ccccc4[nH]3)ccc12 [Compound 14]	–	–	–	–	–	92	8.3 ± 2.1
